Assay results reported in paper PMC12040169 (PLOS Biology, 2025).

Experiment: in vitro
Conditions: human, hela cells, % viability

SMILES | viability at 28.5 h, 10 µM [%] | viability at 28.5 h, 10 µM (bulk resorufin, single well) [%]
O=S(=O)(Nc1ccc(C(O)(C(F)(F)F)C(F)(F)F)cc1)c1ccc(-c2ccon2)s1 [CBK062105] | 91.2 | 
Cc1ccc(C(=O)NC[C@H]2O[C@@H](CC(=O)N3CCCC3)[C@H](O)[C@@H]2O)cc1 [CBK288912] | 98.9 | 
COc1ccc(C(=O)/C=C/Nc2ccc(S(=O)(=O)NC(=N)N)cc2)cc1 [CBK262277] | 84.1 | 
CC(C(=O)NCCn1nc(-c2ccco2)ccc1=O)c1ccccc1 (stereo not drawn) [CBK283861] | 93.6 | 
Cc1c(Cl)cccc1S(=O)(=O)Nc1c(C(=O)N2CCOCC2)[nH]c2ccccc12 [CBK050076] | 109 | 
COc1cccc(CN2CCC(C(=O)O)CC2)c1OC [CBK286548] | 90.5 | 
Cc1ccc(S(=O)(=O)CC(=O)Nc2ncccn2)cc1 [CBK269800] | 97.3 | 
CS(=O)(=O)N1CCCC(C(=O)NCc2ccccn2)C1 (stereo not drawn) [CBK269308] | 101 | 
COc1ccc(N2CCN(c3cncc(-c4cccc(N)c4)n3)CC2)cc1OC [CBK066126] | 94.3 | 
CC(C)[C@@H](CO)Nc1nc(-c2ccccc2Cl)cn2ccnc12 [CBK037368] | 101 | 
CN1CCN(c2ccc(NS(=O)(=O)c3ccc(Cl)cc3)cc2)CC1 [CBK076932] | 97.9 | 
CN(C(=O)C1CCN(S(=O)(=O)c2cn(C)cn2)CC1)C(c1ccc(F)cc1)c1ccccn1 (stereo not drawn) [CBK060229] | 83.8 | 
COC(=O)c1ccc(N2CCN(Cc3ccc(CO)o3)C(C)C2)cc1 (stereo not drawn) [CBK305394] | 83.9 | 
Cc1cc(O)c(-c2n[nH]c3c2C(c2ccccc2F)N(Cc2cccnc2)C3=O)cc1C (stereo not drawn) [CBK268831] | 89.8 | 
CCNC(=O)c1ccc(-c2ccc(C(=O)N(C)C)cc2)nc1 [CBK158361] | 91.7 | 
COc1c(C)cccc1C(=O)NC(=S)Nc1sc2c(c1C(N)=O)CCC2 [CBK265587] | 84.4 | 
CCOc1ccc(C(=O)C2=C(O)C(=O)N(CCN(C)C)C2c2cccnc2)cc1Cl (stereo not drawn) [CBK266585] | 96.5 | 
c1c(C2CC2)[nH]c2nc(N3CCCC3)nc(N3CCCC3)c12 [CBK016707G] | 113 | 
CN(C)C1c2cccc3cccc(c23)C1NS(C)(=O)=O (stereo not drawn) [CBK265851] | 110 | 
CC1CCCCN1C(=O)CN1C(=O)[C@H]2CCCN2C(=O)c2ccccc21 (stereo partly drawn) [CBK286320] | 99.4 | 
Cc1csc(C(Cc2cccs2)NC(=O)CN2CCCC2=O)n1 (stereo not drawn) [CBK284691] | 109 | 
COCCC(=O)N[C@H]1CC[C@]2(C)CCC([C@H](C)C(=O)N3CCC(C)CC3)[C@H](O)[C@H]2[C@@H]1C (stereo partly drawn) [CBK289451] | 103 | 

SMILES | viability at 28.5 h, 10 µM [%] | viability at 28.5 h, 10 µM (bulk resorufin, single well) [%]
CCOc1cc(OCC)cc(C(=O)Nc2ccc(-c3nc4ncccc4o3)cc2)c1 [CBK263440] | 96.8 | 
CC(=O)N1CCC[C@H]2NC(=O)CNC(=O)C3(C/C=C/C[C@H]21)CCN(c1ncccn1)CC3 [CBK292042] | 110 | 
Clc1ccc(COc2cccc(CNCc3ccccn3)c2)c(Cl)c1 [CBK270060C] | 88.8 | 
Cc1ccc(NC2(C#N)C(=O)Nc3ccccc32)cc1C (stereo not drawn) [CBK116388] | 114 | 
Cc1cc(COc2nc3ccccc3nc2N2CCCC2C(=O)OC(C)(C)C)no1 (stereo not drawn) [CBK173753] | 85.8 | 
Cc1cc(-c2nnc(SCC(=O)N3CCCCC3)o2)no1 [CBK268731] | 86.6 | 
COc1cccc2cc(C(=O)N3CCN(C4CCN(C)CC4)CC3)oc12 [CBK149086] | 91.2 | 
Cc1cccc(NC(=S)NNC(=O)CCC(=O)O)c1 [CBK261542] | 85.1 | 
Cc1cc(C(=O)CSc2nc(=O)cc(O)n2CC(C)C)c(C)n1C [CBK295649] | 85.4 | 
OC(CNCCc1ccccc1)COc1c(Br)cccc1Br (stereo not drawn) [CBK003071] | 94 | 
COc1ccc(C(=O)N2CCC(N(C)Cc3ccc(-c4ccc(S(C)(=O)=O)cc4)nc3)CC2)cc1Cl [CBK165991T] | 95.8 | 
CC(=O)Oc1cccc(N2C(=O)c3ccc(Oc4cccc(N)c4)cc3C2=O)c1 [CBK261099] | 96.4 | 
CCOC(=O)c1[nH]c2ccccc2c1NC(=O)c1ccc(Cl)cc1Br [CBK160140] | 96.7 | 
COc1cc(/C=C2\C(=O)NC(=O)N(c3ccc([N+](=O)[O-])cc3)C2=O)cc(Cl)c1OCC(=O)O [CBK265431] |  | 98.3
Cc1noc2nc(-c3cccnc3)cc(C(=O)O)c12 [CBK288207] | 92.4 | 
CCc1nn(C)c2[nH]nc(NC(=O)Cc3csc(C)n3)c12 [CBK305538] | 91.7 | 
CC(O)CNc1nccnc1-c1cccc(CO)c1 (stereo not drawn) [CBK037056] | 91.5 | 
Nc1ncc(-c2cccc(C(=O)O)c2)nc1N1CCOCC1 [CBK063415] | 101 | 
CC(=O)Nc1ccc(NC(=O)/C=C/c2ccc(Cl)cc2)cc1 [CBK264766] | 116 | 
CC(C)CN(Cc1ccc2c(c1)OCO2)C(=O)NCc1ccc(Cl)c(Cl)c1 [CBK159069] | 95.3 | 
O=C(Nc1ccccc1C(=O)O)c1cc(S(=O)(=O)Nc2cccc(F)c2)ccc1Cl [CBK263242] | 84.7 | 
CN1CCN(C(=O)c2ccc(-c3cnc(OCC4CCN(C(=O)OC(C)(C)C)CC4)nc3)cn2)CC1 [CBK170021] | 93.5 | 

SMILES | viability at 28.5 h, 10 µM [%] | viability at 28.5 h, 10 µM (bulk resorufin, single well) [%]
CCc1c(C)nc(SC(C(=O)O)c2ccccc2)c(C#N)c1C (stereo not drawn) [CBK270174] | 94.9 | 
CCOc1cc(/C=C/c2nc(O)c([N+](=O)[O-])c(=O)[nH]2)ccc1OCC(N)=O [CBK267337] | 96 | 
CCCC(=O)N1CCC([C@@H]2C[C@H](C(F)F)n3nc(C)cc3N2)CC1 [CBK284724] | 97.6 | 
O=C(Nc1cncc(OC2CCNCC2)n1)c1cnc2ccccc2c1 [CBK036377T] | 92.8 | 
OCc1ccccc1-c1cn2ccnc2c(N[C@@H]2CCN(Cc3ccccc3)C2)n1 [CBK037969] | 104 | 
CC(=O)Nc1cccc(NC(=O)c2cccc(Cn3cc(Cl)cn3)c2)c1 [CBK265899] | 90.5 | 
CC(NC(=O)Cc1ccc(-c2ccccc2)cc1)c1cccnc1 (stereo not drawn) [CBK295147] | 95 | 
COc1ccc(Nc2cc(-c3cc(OC)c(OC)c(OC)c3)ncn2)c(OC)c1 [CBK090759] | 95.4 | 
O=C(O)CNC(=O)/C(=C\c1ccc(F)cc1)NC(=O)c1ccco1 [CBK263718] | 96.4 | 
Cc1ccc2c(c1)C(Oc1cncc(N3CCNCC3)n1)CCO2 (stereo not drawn) [CBK172334G] | 99.7 | 
COc1cc(Cl)cc(C2NC(=S)NC(c3ccccc3)=C2C(=O)c2ccccc2)c1OCC(=O)O (stereo not drawn) [CBK266332] | 106 | 
Cc1ccccc1OCC1CCCN(C(=O)C2CC(=O)OC2(C)C)C1 (stereo not drawn) [CBK282062] | 92.7 | 
Cn1c(=O)c2ncn(CC(=O)Nc3cccc(C(=O)O)c3)c2n(C)c1=O [CBK266838] | 98.4 | 
O=C(c1cc2ncc(CCO)cn2n1)N1CCC(c2ccccc2Cl)C1 (stereo not drawn) [CBK307266] | 105 | 
CC(NC(=O)CC1CCN(Cc2cccc(C(F)(F)F)c2)CC1)c1nc2ccccc2[nH]1 (stereo not drawn) [CBK285952] | 104 | 
O=C(N[C@H]1CCN2C(=O)c3cc(-c4ccccc4)ccc3NC(=O)[C@H]12)C1CCCC1 [CBK289349] | 91.6 | 
CCOC(=O)Cn1cnc2nc3c(cc2c1=O)CC(C)CC3 (stereo not drawn) [CBK294402] | 90.6 | 
CCn1cc(-c2cncn2CCCn2nc(C)cc2C)cn1 [CBK281770] | 97.1 | 
COc1ccc(CCN[C@H]2CCC[C@@H]2O)cc1OC [CBK005354G] | 78.4 | 
Cc1cc(CN(C)Cc2c(C)nc3ccc(Cl)cn23)n[nH]1 [CBK281913] | 108 | 
c1cnn(CC2CCCN2c2ncnc3sc4c(c23)CCNC4)c1 (stereo not drawn) [CBK307490] | 85.9 | 
Cc1ccc(Cl)c(OC(C)C(=O)N2CCN(c3ccccn3)CC2)c1 (stereo not drawn) [CBK304650] | 90.4 | 

SMILES | viability at 28.5 h, 10 µM [%] | viability at 28.5 h, 10 µM (bulk resorufin, single well) [%]
CCOC(=O)c1cnc2ccc(Br)cc2c1NCc1cccnc1 [CBK265030] | 83.5 | 
Nc1ncc(-c2ccccc2CO)nc1NC1CCOCC1 [CBK063799] | 98.7 | 
CC(C)(O)c1cc(CC2(NCC3CCCCC3)COC2)no1 [CBK289656] | 89.7 | 
Cc1ccccc1Nc1nc(CN2CCC3(CCCOC3)C2)cs1 (stereo not drawn) [CBK304255] | 95 | 
CCOC(=O)CSc1nc2cc(Cl)c(Cl)cc2nc1NC(C)C [CBK107173] | 97.1 | 
CC1CCCCC1NC(=O)NC(=O)Cn1nnc2ccccc2c1=O (stereo not drawn) [CBK306046] | 90.2 | 
COc1nccc(N2CCCC(CO)(CC3CC3)C2)c1C#N (stereo not drawn) [CBK307553] | 89.3 | 
c1cc(Sc2nccnc2N2CCCC2)ccn1 [CBK093807] | 92.3 | 
CCOc1ccc(-c2nnn(CC(N)=O)n2)cc1 [CBK068283] | 110 | 
O=C(O)c1ccc(NS(=O)(=O)c2cc(Br)c(Cl)s2)cc1 [CBK034049] | 95.8 | 
CC(C)(CN)CN(Cc1ccccc1Br)C(=O)NCc1ccc(F)cc1 [CBK002469C] | 92.9 | 
Cc1nn(C)c(N2CCNCC2)c1NC(=O)c1cccs1 [CBK050303T] | 91.9 | 
O=C(O)CSc1nnc(-c2ccco2)n1-c1ccccc1 [CBK131685] | 85.9 | 
Cc1noc(C)c1C(=O)N1CCc2ccccc2C1 [CBK200333] | 103 | 
CCN(c1ccccc1)S(=O)(=O)c1ccc(C(=O)NC(C)c2ccc3c(c2)OCCO3)cc1 (stereo not drawn) [CBK296945] | 83.5 | 
O=C(Cc1cn2ccsc2n1)NCCCN1CCCc2ccccc21 [CBK306611] | 101 | 
CS(=O)(=O)Nc1ccc(CNC(=O)c2ccc3[nH]ccc3c2)cc1 [CBK161747] | 93.5 | 
O=C(O)COc1ccccc1/C=N\N1CCN(Cc2ccccc2Cl)CC1 [CBK020891] | 96.7 | 
Nc1nc(=O)c2cnc3ccc(C(=O)O)cc3c2s1 [CBK291239] | 96.7 | 
O=C(NC(=O)C1CCNCC1)Nc1ccc(F)cc1F [CBK034793] | 115 | 
NC(=O)C1(Cc2cccc(-c3cccs3)c2)CCN(C(=O)Cc2ccccc2)CC1 [CBK286272] | 84.8 | 
